Two molecules from patent US10793547B2, “Modulator of the cystic fibrosis transmembrane conductance regulator, pharmaceutical compositions, methods of treatment, and process for making the modulator” (Vertex Pharmaceuticals Incorporated, priority 2016, dated 2020) can be followed below.

Where two headings read alike, the source gives them in different places.

Data set [1] concerns the target T1, human PXR (Homo sapiens, UniProt O75469).
T1 construct: host or cells: DPX-2 cell line (derived from HepG2)
T1 sequence (O75469 1-434): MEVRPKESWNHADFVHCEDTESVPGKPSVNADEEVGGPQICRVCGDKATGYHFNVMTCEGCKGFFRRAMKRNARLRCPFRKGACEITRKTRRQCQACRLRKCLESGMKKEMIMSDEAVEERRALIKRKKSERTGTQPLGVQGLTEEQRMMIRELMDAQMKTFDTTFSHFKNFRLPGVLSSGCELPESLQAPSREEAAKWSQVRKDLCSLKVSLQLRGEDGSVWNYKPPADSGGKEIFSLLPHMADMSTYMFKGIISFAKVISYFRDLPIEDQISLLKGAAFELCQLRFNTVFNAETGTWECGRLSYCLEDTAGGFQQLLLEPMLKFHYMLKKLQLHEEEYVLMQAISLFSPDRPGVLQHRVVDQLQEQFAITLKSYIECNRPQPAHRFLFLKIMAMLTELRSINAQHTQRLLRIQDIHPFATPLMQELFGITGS
As to the kind of experiment: PXR assay: PXR mediated CYP3A4 induction in DPX-2 cell line. It is filed as cell-based. The conditions noted are these: DPX-2 cells. The method in brief:
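HepG2-derived DPX-2 cells stably carrying human PXR and a CYP3A4 promoter/enhancer–luciferase reporter; 11 doses from 0.1 to 60 μM for 48 h, rifampicin as positive control. Viability read by fluorescence, then luciferase luminescence; max fold induction over vehicle and EC50 reported.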

Data set [2] has as its system Rat hepatocytes. Kind of data set: Hepatocyte clearance, rat hepatocytes. The note with it: percent unchanged. It is filed as in vitro ADME.
In data set [3] the target is T2, F508del-CFTR (Homo sapiens, UniProt P13569, DEL508-508).
T2 construct: expressed in transfected cells
T2 sequence (P13569 with tags, fused parts or gaps DEL508-508): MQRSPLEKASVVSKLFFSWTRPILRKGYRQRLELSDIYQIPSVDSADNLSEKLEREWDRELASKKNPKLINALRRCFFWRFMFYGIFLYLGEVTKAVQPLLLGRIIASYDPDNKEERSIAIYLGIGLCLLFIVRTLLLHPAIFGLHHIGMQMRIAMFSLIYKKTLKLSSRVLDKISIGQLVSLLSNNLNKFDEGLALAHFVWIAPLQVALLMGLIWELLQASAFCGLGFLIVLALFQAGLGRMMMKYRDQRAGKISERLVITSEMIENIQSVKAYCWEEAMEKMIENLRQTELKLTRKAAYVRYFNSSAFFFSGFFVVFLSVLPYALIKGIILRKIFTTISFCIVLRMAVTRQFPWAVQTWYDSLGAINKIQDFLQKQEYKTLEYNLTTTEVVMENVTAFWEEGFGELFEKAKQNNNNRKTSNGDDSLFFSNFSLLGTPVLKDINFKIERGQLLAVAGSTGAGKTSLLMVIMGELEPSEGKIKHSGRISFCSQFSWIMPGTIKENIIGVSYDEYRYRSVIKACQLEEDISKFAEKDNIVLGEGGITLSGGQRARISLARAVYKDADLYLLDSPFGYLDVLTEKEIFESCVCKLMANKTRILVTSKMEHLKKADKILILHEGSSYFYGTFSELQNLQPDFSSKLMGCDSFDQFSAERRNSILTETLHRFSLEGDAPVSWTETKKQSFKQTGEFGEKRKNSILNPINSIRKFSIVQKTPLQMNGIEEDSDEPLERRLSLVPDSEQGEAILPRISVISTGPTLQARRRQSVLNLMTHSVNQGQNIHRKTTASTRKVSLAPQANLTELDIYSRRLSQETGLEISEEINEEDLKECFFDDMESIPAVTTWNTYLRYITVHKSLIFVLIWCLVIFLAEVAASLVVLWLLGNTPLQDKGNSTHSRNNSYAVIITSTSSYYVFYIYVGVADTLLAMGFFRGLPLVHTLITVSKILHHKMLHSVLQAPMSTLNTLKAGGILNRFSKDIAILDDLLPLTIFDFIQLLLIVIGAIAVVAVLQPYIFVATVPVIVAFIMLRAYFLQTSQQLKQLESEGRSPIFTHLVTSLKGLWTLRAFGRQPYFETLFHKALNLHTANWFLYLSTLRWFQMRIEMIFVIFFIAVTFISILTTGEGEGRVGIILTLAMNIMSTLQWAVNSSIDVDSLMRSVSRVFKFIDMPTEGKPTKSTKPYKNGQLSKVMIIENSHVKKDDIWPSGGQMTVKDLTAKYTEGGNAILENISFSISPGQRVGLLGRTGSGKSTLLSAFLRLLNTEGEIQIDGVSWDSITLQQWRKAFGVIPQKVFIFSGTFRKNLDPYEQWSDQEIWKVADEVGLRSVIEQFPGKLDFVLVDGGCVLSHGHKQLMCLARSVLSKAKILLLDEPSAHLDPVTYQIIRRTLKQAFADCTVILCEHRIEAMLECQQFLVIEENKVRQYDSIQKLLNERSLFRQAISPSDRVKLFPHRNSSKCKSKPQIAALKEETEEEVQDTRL
Kind of data set: Membrane potential optical (FLIPR) assay for F508del-CFTR modulators in NIH 3T3 cells. The conditions noted are these: for EC50: assay A1. Format: cell-based. The method in brief:
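NIH3T3 mouse fibroblasts stably expressing F508del, seeded on matrigel and cultured 18-24 h at 37 °C; for correction, cells were cultured with or without compound for 18-24 h. Cells were loaded with voltage-sensing dye, then compound was added in one step with a chloride gradient (chloride replaced by gluconate). Membrane potential was read by fluorescence.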

The subject of data set [4] is MDCK-Wild Type. Kind of data set: MDCK-Wild Type permeability, 96 well + 0.1% BSA. Format: in vitro ADME. The note with it: A-B direction.
In data set [5] the test system is F508del/F508del-HBE cells. As to the kind of experiment: Ussing chamber chloride transport experiment. It is filed as cell-based. As for the experimental part: Ussing chamber experiments were performed on polarized airway epithelial cells expressing F508del to further characterize the F508del modulators identified in the optical assays. Non-CF and CF airway epithelia were isolated from bronchial tissue, cultured as previously described (Galietta, L. J. V., Lantero, S., Gazzolo, A., Sacco, O., Romano, L., Rossi, G. A., & Zegarra-Moran, O. (1998) In Vitro Cell. Dev. Biol. 34, 478-481), and plated onto Costar® Snapwell™ filters that were precoated with NIH3T3-conditioned media. After four days the apical media was removed and the cells were grown at an air liquid interface for >14 days prior to use. […] CF-HBE were isolated from patients homozygous for F508del or compound heterozygous for F508del with an different disease causing mutation on the other allele.
HBE grown on Costar® Snapwell™ cell culture inserts were mounted in an Ussing chamber (Physiologic Instruments, Inc., San Diego, Calif.), and the transepithelial resistance and short-circuit current in the presence of a basolateral to apical Cl^− gradient (ISC) were measured using a voltage-clamp system (Department of Bioengineering, University of Iowa, Iowa). Briefly, HBE were examined under voltage-clamp recording conditions (Vhold=0 mV) at 37° C. […]

Data set [6] can be described thus: Metabolism of Compound 1 in vitro and in vivo. The conditions noted are these: in vitro and in vivo.
Data set [7] can be described thus: MDCK-Wild Type permeability, 96 well + 0.1% BSA. Format: in vitro ADME. The note with it: dog, MDCK, A-B direction, read-out: MDCK-Wild Type-Permeability 96 well + 0.1% BSA Papp compound (A-B).
The nature of data set [8]: Rat IV and PO PK studies. It is filed as in vivo, male Sprague-Dawley rats. The protocol: C. Experimental Protocol for Rat IV and PO PK Studies
The tested compound was administered to male Sprague-Dawley rats as a single nominal intravenous dose of 3.0 mg/kg as a solution in 10% NMP, 10% solution, 15% EtOH, 35% PEG400 and 30% D5W. The tested compound was also administered to male Sprague-Dawley rats at single nominal oral dose of 3 mg/kg as a solution in 5% NMP, 30% PEG400, 10% TPGS, 5% PVP-K30 at 5 mL/kg dose volume. Analyses of plasma and dose preparations were performed using LC/MS/MS.
Plasma concentration-time profiles of the tested compound in Sprague-Dawley rats at scheduled (nominal) sampling times were analyzed by noncompartmental pharmacokinetic methods using PK function within Watson LIMS software, Version 7.4.2 (Thermo Scientific Inc, Waltham, Mass.). AUC values were calculated using the linear trapezoidal rule.

[9] abbreviates: NIH 3T3 cells expressing F508del, read-out: CFTRdF508 Cor 3T3 FLIPR 384 CFTRdF508 MP 3T3 770 EC50.

As to `Cc1nn(C)cc1S(=O)(=O)NC(=O)c1ccc(-n2ccc(OC3CC3C(F)(F)F)n2)nc1N1C[C@@H](C)CC1(C)C` (stereo partly drawn) [Compound 35, N-(1,3-dimethylpyrazol-4-yl)sulfonyl-6-[3-[2-(trifluoromethyl)cyclopropoxy]pyrazol-1-yl]-2-[(4S)-2,2,4-trimethylpyrrolidin-1-yl]pyridine-3-carboxamide], the “CYP3A4 Induction-PXR human PXR internal Max % Activity” value in data set [1] is 21%. Moreover, the “Hepatocyte clearance-Rat Rat hepatocytes CL pct_unchanged” value in data set [2] worked out at 54%. In addition, in data set [3] (setting [9]), the 50% effective concentration (EC50) worked out at 1400 nM. Further, the “MDCK-Wild Type-Permeability 96 well + 0.1% BSA Papp compound (A-B)” value in data set [4] is listed as 5.5 10E-6 cm/s.
For the molecule `Cc1nn(C)cc1S(=O)(=O)NC(=O)c1ccc(-n2ccc(OCC(C)(C)C(F)(F)F)n2)nc1N1C[C@@H](C)CC1(C)C` [Compound 1, N-(1,3-dimethylpyrazol-4-yl)sulfonyl-6-[3-(3,3,3-trifluoro-2,2-dimethyl-propoxy)pyrazol-1-yl]-2-[(4S)-2,2,4-trimethylpyrrolidin-1-yl]pyridine-3-carboxamide], in data set [1], the “CYP3A4 Induction-PXR human PXR internal Max % Activity” value is reported as 2%. In data set [2], the “Hepatocyte clearance-Rat Rat hepatocytes CL pct_unchanged” value is recorded as 66%. Moreover, the “effect on chloride transport in combination with Compound II” value in data set [5] was “additive to the effect of Compound II”. The chloride transport result in data set [5] (Compound 1 alone) is recorded as “enhanced chloride transport”. Further, the metabolism entry in data set [6] was “metabolized both in vitro and in vivo, mostly by oxidative metabolism”. Moreover, the Emax in data set [3] (NIH3T3, assay A1, read-out: % Efficacy relative to Compound II) is ≥ 100%. Besides, the EC50 in data set [3] (setting [9]) was 70 nM; in data set [3] (read-out: EC50), < 3000 nM. Further, the Papp A→B in data set [7] was 4.5 ×10⁻⁶ cm/s. Also, the “RAT PLASMA-RAW IV-bolus CL_drg” value in data set [8] (IV bolus, nominal 3.0 mg/kg) is reported as 1.6 mL/min/kg. For the same molecule, in data set [8] (PO, nominal 3 mg/kg), the “RAT PLASMA-RAW PO % F_drg” value is recorded as 83%. Also, in data set [8] (male, Sprague-Dawley, plasma, PO, nominal 3 mg/kg, read-out: RAT PLASMA-RAW PO AUC (0-inf)_drg), the total exposure AUC(0-inf) was found to be 23500 ng·h/mL.

The EC50 is the midpoint of the concentration-response curve. A word on the Papp A→B: it is how fast a substance crosses the layer from the apical side. Usually AUC(0-inf) stands for total exposure, with the tail of the curve extrapolated.
